Laboratory results: patent US11985932B2 (priority 2019, dated 2024)

How the values were obtained:
[1] = system: rice blast fungus (Magnaporthe grisea strain K-06); type: in vivo; conditions: for hyphal elongation of rice blast fungus in the leaf sheath / blast resistance: progeny (third generation; R2) of treated lines, 150 μM (salicylic acid 1 mM), vs Nipponbare, FIG. 11B; for hyphal elongation of Magnaporthe oryzae in the leaf sheath / disease resistance: regenerated rice individuals, callus treated at 150 μM (salicylic acid 1 mM), P<0.05, FIG. 11A
Botrytis cinerea [2] = test: Botrytis cinerea inoculation of tomato leaves, lesion area; type: in vivo; conditions: regenerated tomato (Micro-Tom) lines, callus treated with 200 μM probenazole; vs WT
WRKY45 gene = test: RNA-seq of probenazole-treated rice callus (WRKY45 induction); type: cell-based, Oryza sativa cv. Nipponbare; conditions: 7th day after probenazole treatment (50, 100 or 150 μM) on dedifferentiation-inducing medium
Botrytis cinerea [3] = test: Botrytis cinerea inoculation of Nicotiana benthamiana leaves, lesion area; type: in vivo
[4] = system: Pseudomonas syringae pv. tabaci; test: Pseudomonas syringae pv. tabaci inoculation of Nicotiana benthamiana leaves, CFU; type: in vivo; conditions: R0 plant of Nicotiana benthamiana of callus treated with probenazole
rice callus = test: Callus survival and redifferentiation under probenazole treatment

## CSC(=O)c1cccc2nnsc12 [acibenzolar S-methyl]
[1]
  hyphal elongation of rice blast fungus in the leaf sheath / blast resistance: significant blast resistance
  hyphal elongation of Magnaporthe oryzae in the leaf sheath / disease resistance: significant disease resistance

## N#Cc1ccccc1NC(=O)c1snc(Cl)c1Cl [isothianil, isotianil]
[1]
  hyphal elongation of rice blast fungus in the leaf sheath / blast resistance: significant blast resistance
  hyphal elongation of Magnaporthe oryzae in the leaf sheath / disease resistance: significant disease resistance

## C=CCOC1=NS(=O)(=O)c2ccccc21 [probenazole, 3-prop-2-enoxy-1,2-benzothiazole 1,1-dioxide]
Botrytis cinerea [2]
  lesion expansion of Botrytis cinerea in tomato leaves: significantly suppressed
WRKY45 gene
  expression of the WRKY45 gene in callus: induced
Botrytis cinerea [3]; R1, self-fertilized progeny of R0, Nicotiana benthamiana
  Botrytis cinerea resistance: Significant Botrytis cinerea resistance
Botrytis cinerea [3]; current generation (R0) of regenerated Nicotiana benthamiana, callus treated with 200 μM probenazole 7 to 21 days, vs wild type
  expansion of lesions of Botrytis cinerea: significantly suppressed
[1]
  hyphal elongation of rice blast fungus in the leaf sheath / blast resistance: significant blast resistance
  hyphal elongation of Magnaporthe oryzae in the leaf sheath / disease resistance: significant disease resistance
[4]
  growth of Pseudomonas syringae pv. tabaci: markedly suppressed
Rice callus; compared to control not treated with probenazole
  number of meristems formed in callus and appearance rate of regenerated plants: no significant difference
Rice callus; probenazole treatment in dedifferentiation or redifferentiation process
  redifferentiation from callus: not inhibited
Rice callus; probenazole-treated rice callus vs control callus
  callus survival rate: 100%

## O=C(O)c1ccccc1O [salicylic acid]
[1]
  hyphal elongation of rice blast fungus in the leaf sheath / blast resistance: significant blast resistance
  hyphal elongation of Magnaporthe oryzae in the leaf sheath / disease resistance: significant disease resistance

## Cc1ccc(NC(=O)c2snnc2C)cc1Cl [tiadinil]
[1]
  hyphal elongation of rice blast fungus in the leaf sheath / blast resistance: significant blast resistance
  hyphal elongation of Magnaporthe oryzae in the leaf sheath / disease resistance: significant disease resistance
